# Values quoted from earlier work, collected in US20260272907A1, “Therapeutic Tyrosine Kinase Inhibitors for Multiple Sclerosis” (Principia Biopharma Inc., priority 2022, published 2026).
# System: RMS patients
# Details: from Week 12; cited from earlier work
compound,measurement,value
C=CC(=O)N1CCC(CNc2ncnc(N)c2-c2ccc(Oc3ccccc3)cc2)CC1 [evobrutinib],Reduction of new Gd-enhancing T1 lesions,meaningful reduction
